We go through twelve compounds from patent publication US20240018161A1, “MODULATORS OF CYSTIC FIBROSIS TRANSMEMBRANE CONDUCTANCE REGULATOR” (VERTEX PHARMACEUTICALS INCORPORATED, priority 2020, published 2024).

pEC50: −log10 of the molar value. Like-named read-outs stand apart in the source and are kept apart here.

In general, pEC50 refers to the EC50 on a negative log10 scale, so that one unit is a factor of ten.

Series [1] addresses CFTR-mediated chloride transport in human intestinal epithelial enteroid cells (Homo sapiens, UniProt P13569). Put plainly: Membrane potential dye, Enteroid Assay A. It is filed as cell-based. The conditions noted are these: for pEC50: read-out: Ent. A EC50. In outline:
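Membrane potential dye (20 μM methyl oxonol, with 30 μM CaCCinh-A01 and 30 μM Chicago Sky Blue) loaded 25 min at room temperature into ROCK-inhibitor-seeded human enteroid cells. Chloride-free stimulation buffer triggered transport, followed by 15 min fluorescence. % Activity relative to 3 μM/3 μM/300 nM triple-combination control.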

For series [2] the following is noted: 13-membered ring, NaH, DMF.

Chain of CFTR-mediated chloride transport in human intestinal epithelial enteroid cells (P13569 with tags, fused parts or gaps DEL508-508): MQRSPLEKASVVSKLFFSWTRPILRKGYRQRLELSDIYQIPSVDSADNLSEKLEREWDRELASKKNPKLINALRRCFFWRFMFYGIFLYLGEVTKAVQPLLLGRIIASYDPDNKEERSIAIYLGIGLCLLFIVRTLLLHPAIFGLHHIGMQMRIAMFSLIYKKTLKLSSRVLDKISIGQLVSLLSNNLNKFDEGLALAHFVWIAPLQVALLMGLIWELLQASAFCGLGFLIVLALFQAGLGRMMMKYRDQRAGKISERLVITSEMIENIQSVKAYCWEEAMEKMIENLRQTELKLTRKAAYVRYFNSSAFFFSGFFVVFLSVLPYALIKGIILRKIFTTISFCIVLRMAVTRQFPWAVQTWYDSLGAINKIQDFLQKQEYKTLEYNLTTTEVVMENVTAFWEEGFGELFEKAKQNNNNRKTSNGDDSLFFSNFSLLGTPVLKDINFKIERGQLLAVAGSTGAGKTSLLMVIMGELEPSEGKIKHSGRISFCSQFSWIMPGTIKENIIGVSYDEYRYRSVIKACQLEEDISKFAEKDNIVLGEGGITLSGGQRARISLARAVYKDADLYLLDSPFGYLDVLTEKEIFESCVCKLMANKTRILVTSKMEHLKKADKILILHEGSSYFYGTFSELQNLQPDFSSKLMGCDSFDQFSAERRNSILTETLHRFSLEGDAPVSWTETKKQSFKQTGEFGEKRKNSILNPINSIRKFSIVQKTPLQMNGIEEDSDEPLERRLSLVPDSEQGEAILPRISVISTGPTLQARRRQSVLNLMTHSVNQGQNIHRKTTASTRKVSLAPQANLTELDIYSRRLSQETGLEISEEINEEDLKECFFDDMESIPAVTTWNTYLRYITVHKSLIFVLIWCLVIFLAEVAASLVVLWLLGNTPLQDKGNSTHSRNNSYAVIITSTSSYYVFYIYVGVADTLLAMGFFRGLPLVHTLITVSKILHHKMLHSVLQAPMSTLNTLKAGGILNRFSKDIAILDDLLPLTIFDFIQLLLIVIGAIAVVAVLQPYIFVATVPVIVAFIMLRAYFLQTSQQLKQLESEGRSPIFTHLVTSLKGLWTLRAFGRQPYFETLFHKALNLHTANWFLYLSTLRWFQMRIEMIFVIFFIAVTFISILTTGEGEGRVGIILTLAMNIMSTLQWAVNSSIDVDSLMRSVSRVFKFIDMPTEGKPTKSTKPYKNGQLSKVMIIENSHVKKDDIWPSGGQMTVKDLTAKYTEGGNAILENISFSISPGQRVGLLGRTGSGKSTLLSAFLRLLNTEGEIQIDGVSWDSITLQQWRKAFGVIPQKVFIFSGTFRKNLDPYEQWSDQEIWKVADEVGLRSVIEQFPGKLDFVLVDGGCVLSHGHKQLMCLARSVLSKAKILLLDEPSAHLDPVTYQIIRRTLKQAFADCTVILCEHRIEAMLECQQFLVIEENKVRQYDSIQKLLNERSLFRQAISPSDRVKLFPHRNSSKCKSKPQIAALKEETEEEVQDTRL

For `Cc1cccc(C)c1-c1cc2nc(n1)NS(=O)(=O)c1cccc(c1)C(=O)N1CCN(C(=O)OC(C)(C)C)CC(C1)O2` (stereo not drawn) [Compound 43, tert-Butyl 12-(2,6-dimethylphenyl)-2,8,8-trioxo-15-oxa-8λ^6-thia-1,9,11,18,22-pentaazatetracyclo[14.4.1.13,7.110,14]tricosa-3(23),4,6,10(22),11,13-hexaene-18-carboxylate], in series [1] (enteroid cells incubated with test compound 18-24 hours, acute 10 μM forskolin and 300 nM N-[2,4-bis(1,1-dimethylethyl)-5-hydroxyphenyl]-1,4-dihydro-4-oxoquinoline-3-carboxamide), the pEC50 was > 6.00. Also, the “Ent. A Max Activity (%)” value in series [1] (percentage of chloride transport of triple combination control (3 μM N-[(6-amino-2-pyridyl)sulfonyl]-6-(3-fluoro-5-isobutoxy-phenyl)-2-[(4S)-2,2,4-trimethylpyrrolidin-1-yl]pyridine-3-carboxamide based)) is “+++ (+++ is >60%)”. This compound also displayed a ring closure, isolated yield in series [2] (from Cc1cccc(C)c1-c1cc(Cl)nc(NS(=O)(=O)c2cccc(C(=O)N3CCN(C(=O)OC(C)(C)C)CC(O)C3)c2)n1, snar bond, 15.5 mM, 25.0 °C, 16.0 h) of 56%.

Take `Cc1cccc(C)c1-c1cc2nc(n1)NS(=O)(=O)c1cccc(c1)CN1CC(CN(C(=O)OC(C)(C)C)CC1=O)O2` (stereo not drawn) [Compound 77, tert-Butyl 12-(2,6-dimethylphenyl)-8,8,20-trioxo-15-oxa-8λ^6-thia-1,9,11,18,22-pentaazatetracyclo[14.4.1.13,7.110,14]tricosa-3(23),4,6,10,12,14(22)-hexaene-18-carboxylate]: in series [1] (Enteroid Assay A), the “Ent. A Max Activity (%)” value is on record as “++ (++ is 30-60%)” and the pEC50 was > 6.00. Besides, the ring closure, isolated yield in series [2] (from Cc1cccc(C)c1-c1cc(OC2CNC(=O)CN(C(=O)OC(C)(C)C)C2)nc(NS(=O)(=O)c2cccc(CBr)c2)n1, other bond, 19.7 mM, 0.0 °C, 0.5 h) was 68%.

For the compound `Cc1cccc(C)c1-c1cc2nc(n1)NS(=O)(=O)c1cccc(c1)C(=O)N1CCN(Cc3ccccc3)C[C@@H](O2)[C@H]1CC(C)C` [Compound 84, (16R,21R)-18-Benzyl-12-(2,6-dimethylphenyl)-21-(2-methylpropyl)-15-oxa-8λ^6-thia-1,9,11,18,22-pentaazatetracyclo[14.4.1.13,7.110,14]tricosa-3(23),4,6,10,12,14(22)-hexaene-2,8,8-trione], in series [1] (Enteroid Assay A), the “Ent. A Max Activity (%)” value was “+++ (+++ is >600%)” and the pEC50 is > 6.00. The ring closure, isolated yield in series [2] (from Cc1cccc(C)c1-c1cc(Cl)nc(NS(=O)(=O)c2cccc(C(=O)N3CCN(Cc4ccccc4)C[C@H](O)[C@H]3CC(C)C)c2)n1, snar bond, 16.6 mM, 25.0 °C, 72.0 h) came out at 35%.

With `Cc1cccc(C)c1-c1cc2nc(n1)NS(=O)(=O)c1cccc(c1)C(=O)N1CCN(Cc3ccccc3)C[C@H](O2)[C@H]1CC(C)C` [Compound 86, (16S,21R)-18-Benzyl-12-(2,6-dimethylphenyl)-21-(2-methylpropyl)-15-oxa-8λ^6-thia-1,9,11,18,22-pentaazatetracyclo[14.4.1.13,7.110,14]tricosa-3(23),4,6,10(22),11,13-hexaene-2,8,8-trione], in series [1] (Enteroid Assay A), the “Ent. A Max Activity (%)” value is on record as “+++ (+++ is >600%)” and the pEC50 was > 6.00. Besides, in series [2] (from Cc1cccc(C)c1-c1cc(Cl)nc(NS(=O)(=O)c2cccc(C(=O)N3CCN(Cc4ccccc4)C[C@@H](O)[C@H]3CC(C)C)c2)n1, snar bond, 16.5 mM, 25.0 °C, 17.0 h), the ring closure, isolated yield came out at 5%.

As for `Cc1cccc(C)c1-c1cc2nc(n1)NS(=O)(=O)c1cccc(c1)C(=O)N1C[C@@H](CN(C(=O)OC(C)(C)C)C[C@@H]1CC(C)C)O2` [Compound 96, tert-Butyl (16S,20S)-12-(2,6-dimethylphenyl)-20-(2-methylpropyl)-2,8,8-trioxo-15-oxa-8λ^6-thia-1,9,11,18,22-pentaazatetracyclo[14.4.1.13,7.110,14]tricosa-3(23),4,6,10(22),11,13-hexaene-18-carboxylate], in series [1] (Enteroid Assay A), the “Ent. A Max Activity (%)” value was “++ (++ is 30-60%)” and the pEC50 is > 6.00. Further, the ring closure, isolated yield in series [2] (from Cc1cccc(C)c1-c1cc(Cl)nc(NS(=O)(=O)c2cccc(C(=O)N3C[C@H](O)CN(C(=O)OC(C)(C)C)C[C@@H]3CC(C)C)c2)n1, snar bond, 29.2 mM, 25.0 °C, 5.08 h) worked out at 66%.

Regarding `Cc1cccc(C)c1-c1cc2nc(n1)NS(=O)(=O)c1cccc(c1)C(=O)N1C[C@H](CN(C(=O)OC(C)(C)C)C[C@@H]1CC(C)C)O2` [Compound 100, tert-Butyl (16R,20S)-12-(2,6-dimethylphenyl)-20-(2-methylpropyl)-2,8,8-trioxo-15-oxa-8λ^6-thia-1,9,11,18,22-pentaazatetracyclo[14.4.1.13,7.110,14]tricosa-3(23),4,6,10(22),11,13-hexaene-18-carboxylate], the “Ent. A Max Activity (%)” value in series [1] (Enteroid Assay A) is reported as “+ (+ is <30%)”. In series [2] (from Cc1cccc(C)c1-c1cc(Cl)nc(NS(=O)(=O)c2cccc(C(=O)N3CC(O)CN(C(=O)OC(C)(C)C)C[C@@H]3CC(C)C)c2)n1, snar bond, 31.2 mM, 25.0 °C, 3.08 h), this compound had a ring closure, isolated yield of 35%.

`Cc1cccc(C)c1-c1cc2nc(n1)NS(=O)(=O)c1cccc(c1)C(=O)N1C[C@@H](CN(C(=O)OC(C)(C)C)C[C@H]1CC(C)C)O2` [Compound 102, tert-Butyl (16S,20R)-12-(2,6-dimethylphenyl)-20-(2-methylpropyl)-2,8,8-trioxo-15-oxa-8λ^6-thia-1,9,11,18,22-pentaazatetracyclo[14.4.1.13,7.110,14]tricosa-3(23),4,6,10(22),11,13-hexaene-18-carboxylate]: in series [1] (Enteroid Assay A), the “Ent. A Max Activity (%)” value is “++ (++ is 30-60%)” and the pEC50 is > 6.00. The compound further showed a ring closure, isolated yield in series [2] (from Cc1cccc(C)c1-c1cc(Cl)nc(NS(=O)(=O)c2cccc(C(=O)N3C[C@H](O)CN(C(=O)OC(C)(C)C)C[C@H]3CC(C)C)c2)n1, snar bond, 30.8 mM, 4.17 h) of 34%.

`Cc1cccc(C)c1-c1cc2nc(n1)NS(=O)(=O)c1cccc(c1)C(=O)N1C[C@H](CN(C(=O)OC(C)(C)C)C[C@H]1CC(C)C)O2` [Compound 106, tert-Butyl (16R,20R)-12-(2,6-dimethylphenyl)-20-(2-methylpropyl)-2,8,8-trioxo-15-oxa-8λ^6-thia-1,9,11,18,22-pentaazatetracyclo[14.4.1.13,7.110,14]tricosa-3(23),4,6,10(22),11,13-hexaene-18-carboxylate]: in series [1] (Enteroid Assay A), the “Ent. A Max Activity (%)” value is reported as “+ (+ is <30%)”. In addition, in series [2] (from Cc1cccc(C)c1-c1cc(Cl)nc(NS(=O)(=O)c2cccc(C(=O)N3C[C@@H](O)CN(C(=O)OC(C)(C)C)C[C@H]3CC(C)C)c2)n1, snar bond, 31.3 mM, 2.17 h), the ring closure, isolated yield was found to be 45%.

Take `Cc1cccc(C)c1-c1cc2nc(n1)NS(=O)(=O)c1cccc(c1)C(=O)N1C[C@@H](CN(Cc3ccccc3)[C@@H](CC(C)C)C1)O2` [Compound 109, (16R,19S)-18-Benzyl-12-(2,6-dimethylphenyl)-19-(2-methylpropyl)-15-oxa-8λ^6-thia-1,9,11,18,22-pentaazatetracyclo[14.4.1.13,7.110,14]tricosa-3(23),4,6,10(22),11,13-hexaene-2,8,8-trione]: in series [1] (Enteroid Assay A), the “Ent. A Max Activity (%)” value is on record as “+++ (+++ is >600%)” and the pEC50 is > 6.00. The compound further came in with a ring closure, isolated yield in series [2] (from Cc1cccc(C)c1-c1cc(Cl)nc(NS(=O)(=O)c2cccc(C(=O)N3CC(O)CN(Cc4ccccc4)[C@@H](CC(C)C)C3)c2)n1, snar bond, 30.0 mM, 0.0 °C, 7.0 h) of 28%.

Regarding `Cc1cccc(C)c1-c1cc2nc(n1)NS(=O)(=O)c1cccc(c1)C(=O)N1C[C@H](CN(Cc3ccccc3)[C@H](CC(C)C)C1)O2` [Compound 111, (16S,19R)-18-Benzyl-12-(2,6-dimethylphenyl)-19-(2-methylpropyl)-15-oxa-8λ^6-thia-1,9,11,18,22-pentaazatetracyclo[14.4.1.13,7.110,14]tricosa-3(23),4,6,10(22),11,13-hexaene-2,8,8-trione], the “Ent. A Max Activity (%)” value in series [1] (Enteroid Assay A) is listed as “+ (+ is <30%)”. The ring closure, isolated yield in series [2] (from Cc1cccc(C)c1-c1cc(Cl)nc(NS(=O)(=O)c2cccc(C(=O)N3C[C@@H](O)CN(Cc4ccccc4)[C@H](CC(C)C)C3)c2)n1, snar bond, 28.6 mM, 4.6 h) came to 57%.

In the case of `Cc1cccc(C)c1-c1cc2nc(n1)NS(=O)(=O)c1cccc(c1)C(=O)N1CCN(C(=O)OC(C)(C)C)[C@H](CC(C)C)[C@H](C1)O2` [Compound 114, tert-Butyl (16S,17R)-12-(2,6-dimethylphenyl)-17-(2-methylpropyl)-2,8,8-trioxo-15-oxa-8λ^6-thia-1,9,11,18,22-pentaazatetracyclo[14.4.1.13,7.110,14]tricosa-3(23),4,6,10(22),11,13-hexaene-18-carboxylate], in series [1] (Enteroid Assay A), the “Ent. A Max Activity (%)” value is recorded as “+++ (+++ is >600%)” and the pEC50 was > 6.00. The compound also displayed a ring closure, isolated yield in series [2] (from Cc1cccc(C)c1-c1cc(Cl)nc(NS(=O)(=O)c2cccc(C(=O)N3CCN(C(=O)OC(C)(C)C)[C@H](CC(C)C)[C@@H](O)C3)c2)n1, snar bond, 30.9 mM, 1.67 h) of 34%.

For `Cc1cccc(C)c1-c1cc2nc(n1)NS(=O)(=O)c1cccc(c1)C(=O)N1CCN(C(=O)OC(C)(C)C)[C@H](CC(C)C)[C@@H](C1)O2` [Compound 115, tert-Butyl (16R,17R)-12-(2,6-dimethylphenyl)-17-(2-methylpropyl)-2,8,8-trioxo-15-oxa-8λ^6-thia-1,9,11,18,22-pentaazatetracyclo[14.4.1.13,7.110,14]tricosa-3(23),4,6,10(22),11,13-hexaene-18-carboxylate], in series [1] (Enteroid Assay A), the “Ent. A Max Activity (%)” value is recorded as “++ (++ is 30-60%)” and the pEC50 was > 6.00. This compound had a ring closure, isolated yield in series [2] (from Cc1cccc(C)c1-c1cc(Cl)nc(NS(=O)(=O)c2cccc(C(=O)N3CCN(C(=O)OC(C)(C)C)[C@H](CC(C)C)[C@H](O)C3)c2)n1, snar bond, 31.6 mM, 1.67 h) of 67%.
